Reference: patent US20180353539A1, “METAL COMPLEXES AS PHARMACEUTICALS FOR TREATMENT AND PREVENTION OF CANCER AND INFLAMMATORY DISEASES” (UNIVERSITY OF SOUTHERN CALIFORNIA, priority 2017, published 2018)

Experiments:
[1] = MTT assays; salicylic acid alone
[2] = test system: stage IV breast cancer metastasized to lungs and brain; assay: Case Study 3; assay type: in vivo, human
Method: A patient was diagnosed with stage IV breast cancer and invasive ductal carcinoma metastasized to multiple organs (lungs and brain). […] They then took 3 dosages of 50 mg of zinc iodide per day orally. A chest ray was taken 61 days after the start of treatment, as shown the lung metastases decreased by more than 60%.

[3] = test system: adenocarcinoma of the pancreatic head; assay: Case Study 6; assay type: in vivo, human; set-up: total bilirubin: unit not given here
Method: A person had symptoms of weight loss and abdominal pain over a 2-month period. […] At the head, there was a 38-mm×42 mm mass detected. In addition, their intrahepatic billiard tree was dilated. The patient was given 125 mg of Zinc Iodide mixing with 1000 ml of sodium chloride 0.9% and 10 ml of DMSO through infusion daily for 20 days. […] They gained 4 kg of body weight. […] The patient is symptom free.

[4] = test system: prostate cancer with diffuse metastases; assay: Case Study 7; assay type: in vivo, human
Method: A patient had prostate cancer with diffuse metastases, along with severe leg pain. They underwent hormonal therapy, until they developed severe bone pain. They took voltaren injections and solumedrol infusions to alleviate the pain. […] The patient was weak and lost 5 kg of weight in a month. They began the treatment with 125 mg of Zinc Iodide mixing with 1000 ml of sodium chloride 0.9% and 10 ml of DMSO through infusion. […] Their RBC, hemoglobin and serum calcium levels all normalized; and their PSA decrease dramatically to 40 ng/mL. Their quality of life improved greatly, and they had no symptoms.

[5] = test system: cholangiocarcinoma; assay: Case Study 9; assay type: in vivo, human; set-up: total bilirubin: unit not given here
From the text: A person presented with jaundice, abdominal discomfort and lack of appetite. They could not eat or drink properly. Over the last 3 months, their weight decreased by 8 kg. […] There was also a hypodense lesion with an intraductal growth type, sized at 3.6 cm×4.1 cm, on their liver. […] They were diagnosed with cholangiocarcinoma.

[6] = test system: esophageal cancer with multiple lymphatic metastases; assay: Case Study 10; assay type: in vivo, human
Method: A person was diagnosed with esophageal cancer with multiple lymphatic metastases. Their blood chemistry profile was normal, but their CEA levels were 6.7 ng/mL. The patient presented symptoms of extreme fatigue, difficult swallowing, chest pains, fever and weight loss. An endoscopy reveled a 4.2 cm×3.7 cm lesion on their esophagus. The tumor had poorly differentiated adenocarcinoma. […] The patient underwent treatments of 200 mg of zinc iodide mixing with 1000 mL of 0.9% sodium chloride solution and in 10 mL of DMSO, 6 times/week for 4 weeks. […] They also stopped steroid treatment. […] After 24 days of the infusion treatment, they began taking 50 mg Zinc Iodide capsules, 3 times/day for 90 days.

[7] = test system: lung cancer; assay: Case Study 14; assay type: in vivo, human
Method: A person presented with cough and chest pains that persisted over 6 months. In that time, they also lost 6 kg of weight. In the last 20 days, the patient developed hemoptysis, which lead them to hospitalization. […] They also had total opacification of the right lung. The patient was diagnosed with lung cancer and sent home. The patient was treated with 3-50 mg Zinc Iodide capsules/day for 120 days. After 5 days, their breathing capabilities and cough improved.

[8] = Case Study 15; assay type: in vivo, human
Method: Due to this, they were hospitalized 4-5 times/year. For 3 years, they used a corticosteroid inhaler, bronchodilator, antibiotics and COPD medication to no avail. They were also taking hypertension medication as a result of the COPD treatment. Their blood pressure was 160/96 and Forced Expiratory Volume (FEV1) at 58%. The patient was treated with 3-50 mg Zn Iodide capsules/day. […] […] (FEV1) was 67% and their blood pressure decreased to 130/90. […] Even though they were not taking COPD medication, there were no signs of infections either.

[9] = test system: pancreatic adenocarcinoma; assay: Case Study 16; assay type: in vivo, human
Method: A person presented symptoms of abdominal pain, nausea, and vomiting. […] They also had multiple metastases on their liver. They were diagnosed with pancreatic adenocarcinoma. Their CA 19-9 (levels of tumor-associated antigens in the blood) was 365 U/mL. The patient was treated through infusion with 200 mg of zinc Iodide mixing with 1000 mL of 0.9% sodium chloride solution and 10 mL of DMSO. The symptoms presented improved after 2 days of treatment. […] After 35 days on the treatment, an ultrasound was taken of the pancreas. The tumor had decreased to 4.3 cm×5.2 cm. Their CA 19-9 levels decreased to 168 U/mL. After 40 treatments, the patient began treatment orally; they were given 50 mg zinc iodide capsules 3 times/day. After 155 days on the oral treatment, a CT of their pancreas was taken. The tumor decreased to 2.4 cm×3.6 cm. The liver metastasis decreased by 50% also.

[10] = test system: liver cancer; assay: Case Study 17; assay type: in vivo, human
Method: A person with chronic hepatitis C presented symptoms of abdominal pain. […] They had also been diagnosed with type 2 diabetes three years prior. […] Within 5 days their abdominal pain disappeared, and […] general health improved. […] Their cancer related markers included: AFP: 678 IU/L, GOP: 146 IU/L, GPT: 126 IU/L, and GGT: 124 IU/L. The patient's blood glucose level was 6.7 mmol/L. For the next 90 days, the patient took 50 mg of zinc iodide orally in capsule form 3 times/day. […] Their cancer related markers included: AFP: 107 IU/L, GOP: 195 IU/L, GPT: 69 IU/L, and GGT: 115 IU/L. The patient's blood glucose level was 7.4 mmol/L.

[11] = 61 days after the start of treatment
[12] = 105 days after the beginning of treatment
[13] = after further 90 days of oral treatment

For `O=C(O)c1ccccc1O` [salicylic acid], the cellular activity [1] was “no effect on cellular activity”.
With `[I][Zn][I]` [Zinc Iodide, zinc iodide] the “decrease of lung metastases” value [2, 11] was “more than 60%”, the “reduction of brain metastases (MRI)” value [2, 11] was 50% and the “symptoms of coughing, headache and nausea” value ([2]; over 12 days of infusion) was “gradually improved”. For the same molecule, the “CA 19-9 level” value ([3]; 63rd day) was 46 U/mL, the liver metastases ([3]; 63rd day) was “no indications of liver metastases” and the symptoms ([3]; after treatment) was “symptom free”. It also gave a total bilirubin ([3]; at 10 days, before treatment 78) of 56, an AST ([3]; at 10 days, before treatment 113) of 73 U/L and a GGT ([3]; at 10 days, before treatment 149) of 149 U/L. The ALT ([3]; at 10 days, before treatment 187) was 73 U/L, the “CA 19-9” value ([3]; at 10 days, before treatment 385) was 184 U/L and the body weight gained ([3]; during oral treatment) was 4 kg. The pain ([3]; within 7 days) was “completely disappeared”, the “RBC, hemoglobin and serum calcium levels” value ([4]; after oral treatment) was “normalized” and the symptoms ([4]; after oral treatment) was “no symptoms”. For the same molecule, the “ultrasound and x-ray scans” value ([4]; after oral treatment) was “no abnormalities”, the PSA ([4]; after oral treatment, before treatment 260) was 40 ng/mL and the pain medication ([4]; by day 20) was “stopped all pain medication”. It also gave an RBC count ([4]; day 20, before treatment 3.2) of 4.2 million cells/uL, a serum calcium levels ([4]; day 20, before treatment 3.5) of 2.5 mmol/L and a hemoglobin ([4]; day 20, before treatment 9) of 10.7 g/dL. The pain improvement ([4]; within 7 days) was 70%, the GGT levels ([5]; 105 days) was 784 U/L and the GOT levels ([5]; 105 days) was 67 U/L. The GPT levels ([5]; 105 days) was 54 U/L, the total bilirubin ([5]; 105 days) was 28 and the symptoms [5, 12] was “no longer experienced symptoms”. For the same molecule, the weight gained [5, 12] was 4 kg, the GPT ([5]; after 10 days, before treatment 127) was 97 U/L and the total bilirubin ([5]; after 10 days, before treatment 139) was 75. The GOT ([5]; after 10 days, before treatment 163) was 121 U/L, the GGT ([5]; after 10 days, before treatment 1410) was 1267 U/L and the GGT ([5]; at 21 days) was 978 U/L. For the same molecule, the GOT ([5]; at 21 days) was 85 U/L, the GPT ([5]; at 21 days) was 193 U/L and the jaundice ([5]; at 21 days) was “improved”. The total bilirubin ([5]; at 21 days) was 56, the digestive health ([5]; within 5 days) was “improved significantly” and the lymph nodes ([6]; 105th day) was “clear of metastases”. The fever and pain ([6]; after 3 days) was “no symptoms of fever or pain”, the general health ([6]; after 3 days) was “improved” and the eating and drinking ([6]; within 3 weeks) was “could eat and drink normally”. For the same molecule, the “breathing capabilities and cough” value ([7]; after 5 days) was “improved”, the “clearance of opacification (CT)” value ([7]; after 121 days) was 80% and the blood in sputum ([7]; by 12 days) was “no longer had blood in their sputum”. For the same molecule, the “Forced Expiratory Volume (FEV1)” value ([8]; 92 days after first treatment) was 75%, the blood pressure ([8]; 92 days after first treatment) was 125/90 and the shortness of breath ([8]; 92 days after first treatment) was “no longer had shortness of breath”. For the same molecule, the “need for fast acting bronchodilator inhalers” value ([8]; after 3 days) was “no longer needed fast acting bronchodilator inhalers”, the COPD related symptoms ([8]; at 30 days) was “remarkable improvement” and the “Forced Expiratory Volume (FEV1)” value ([8]; at 30 days, before treatment 58%) was 67%. The blood pressure ([8]; at 30 days, before treatment 160/96) was 130/90, the COPD related episodes ([8]; in the following 2 months) was “did not have any COPD related episodes” and the “need for corticosteroid inhalers” value ([8]; within 10 days) was “no longer needed corticosteroid inhalers”. For the same molecule, the symptoms ([9]; after 2 days of treatment) was “improved”, the “CA 19-9 levels” value ([9]; after 35 days, before treatment 365) was 168 U/mL and the “decrease of liver metastasis” value ([9]; after 155 days on the oral treatment) was 50%. The symptoms ([9]; by the 5th day) was “almost symptom-free”, the GOT ([10]; after 10 days, GOT before treatment 326) was 224 IU/L and the blood glucose level ([10]; after 10 days, before treatment 8.5) was 7.6 mmol/L. For the same molecule, the GGT ([10]; after 10 days, before treatment 251) was 93 IU/L, the GPT ([10]; after 10 days, before treatment 293) was 187 IU/L and the AFP ([10]; after 10 days, before treatment 1450) was 1209 IU/L. The AFP ([10]; after 21 days) was 678 IU/L, the GGT ([10]; after 21 days) was 124 IU/L and the GOT ([10]; after 21 days) was 146 IU/L. It also gave a GPT ([10]; after 21 days) of 126 IU/L, a blood glucose level ([10]; after 21 days) of 6.7 mmol/L and an AFP [10, 13] of 107 IU/L. For the same molecule, the GGT [10, 13] was 115 IU/L, the GOT [10, 13] was 195 IU/L and the GPT [10, 13] was 69 IU/L. The blood glucose level [10, 13] was 7.4 mmol/L and the abdominal pain ([10]; within 5 days) was “disappeared”.
